Data reported in patent US11180449B2, “Crystal form of key intermediate of bruton tyrosine kinase (BTK) inhibitor and preparation method thereof” (SHANGHAI ZAIQI BIO-TECH CO., LTD., priority 2019, dated 2021).
Entries after “also recorded” stand apart in the source; their conditions may differ.

Legend:
[1] = Stability comparison between crystal forms I and II (influence factors: light, temperature, humidity); type: physicochemical; details: for change of purity of the compound: 10 days under light, 30° C. and 40° C., 75% RH and 90% RH
[2] = Special stability of crystal form II (grinding, heating, tableting); type: physicochemical
Description: The crystal form II of a compound of formula (I) prepared according to the method of Example 2 was subjected to grinding, heating and tableting.

Row | purity of the compound, 30° C. ([1]; day 0) [%] | purity of the compound, 30° C. ([1]; day 5) [%] | purity of the compound, 30° C. ([1]; day 10) [%] | purity of the compound, 30° C. ([1]; day 30) [%] | purity of the compound, 40° C. ([1]; day 0) [%] | purity of the compound, 40° C. ([1]; day 5) [%] | purity of the compound, 40° C. ([1]; day 10) [%] | purity of the compound, 40° C. ([1]; day 30) [%] | change of purity of the compound [1] | purity of the compound, Illumination ([1]; open condition, day 0) [%] | purity of the compound, Illumination ([1]; open condition, day 5) [%] | purity of the compound, Illumination ([1]; open condition, day 10) [%] | purity of the compound, Illumination ([1]; open condition, day 30) [%] | purity of the compound, RH75% ([1]; day 0) [%] | purity of the compound, RH75% ([1]; day 5) [%] | purity of the compound, RH75% ([1]; day 10) [%] | purity of the compound, RH75% ([1]; day 30) [%] | purity of the compound, RH90% ([1]; day 0) [%] | purity of the compound, RH90% ([1]; day 5) [%] | purity of the compound, RH90% ([1]; day 10) [%] | Compound | other results
1 | 99.31 | 99.23 | 99.10 | 98.87 | 99.31 | 99.18 | 99.05 | 95.01 | not obviously changed | 99.31 | 97.75 | 95.53 | 85.76 | 99.31 | 99.18 | 98.97 | 97.41 | 99.31 | 98.91 | 98.51 | CCOC(=O)c1c(C#N)c(-c2ccc(Oc3c(F)cccc3F)cc2)cn1[C@@H]1CCN(C(=O)OC(C)(C)C)C1 [Crystal form I] | purity of the compound, RH90% ([1]; day 30): 95.91%; crystal form re-tested after the influence factor experiment [1]: not changed
2 | 99.73 | 99.72 | 99.72 | 99.67 | 99.73 | 99.68 | 99.65 | 99.60 | not obviously changed | 99.73 | 99.56 | 99.43 | 99.21 | 99.73 | 99.72 | 99.68 | 99.64 | 99.73 | 99.71 | 99.61 | CCOC(=O)c1c(C#N)c(-c2ccc(Oc3c(F)cccc3F)cc2)cn1[C@@H]1CCN(C(=O)OC(C)(C)C)C1 [Crystal form II] | purity of the compound, RH90% ([1]; day 30): 99.53%; crystal form re-tested after the influence factor experiment [1]: not changed; stability compared with crystal form I (amorphous sample) ([1]; open condition, light, high temperature and high humidity): significantly better; XRD detection (crystal form after treatment) ([2]; Grinding for 10 min in a mortar under nitrogen protection): Crystal; XRD detection (crystal form after treatment) ([2]; Tableting): Crystal; stability of the crystal form under mechanical treatment ([2]; grinding, heating and tableting (pressure)): good stability; also recorded: stable
